Residue numbers refer to the chain shown, from its start.
Columns and labels:
[1] = target: T1, mouse bestrophin-2 (mBest2) (Mus musculus, UniProt Q8BGM5); assay: whole-cell patch clamp, block of Cl- current; format: cell-based
T1 sequence (Q8BGM5 1-508): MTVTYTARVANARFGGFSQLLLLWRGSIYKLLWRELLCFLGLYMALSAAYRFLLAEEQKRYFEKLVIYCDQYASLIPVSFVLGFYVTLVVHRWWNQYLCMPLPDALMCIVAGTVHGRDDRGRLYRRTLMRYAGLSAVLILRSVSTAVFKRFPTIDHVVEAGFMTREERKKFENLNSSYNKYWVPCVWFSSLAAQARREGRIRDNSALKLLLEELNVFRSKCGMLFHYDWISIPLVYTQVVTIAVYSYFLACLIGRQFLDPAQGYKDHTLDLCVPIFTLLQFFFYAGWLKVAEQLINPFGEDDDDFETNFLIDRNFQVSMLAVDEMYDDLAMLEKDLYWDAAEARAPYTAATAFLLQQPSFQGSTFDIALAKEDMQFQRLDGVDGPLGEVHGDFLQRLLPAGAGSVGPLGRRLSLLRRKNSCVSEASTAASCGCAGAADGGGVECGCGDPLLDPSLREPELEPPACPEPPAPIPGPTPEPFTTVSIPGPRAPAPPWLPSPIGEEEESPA

[2] = target: T2, mouse bestrophin-2 (mBest2) (Mus musculus, UniProt Q8BGM5, S79C); assay: whole-cell patch clamp, block of Cl- current; format: cell-based
T2 sequence (Q8BGM5 1-508 S79C): T1 sequence (Q8BGM5 1-508) with S79C

IC50 [1] [µM] | IC50 [2] [µM] | Structure (SMILES)
12000 | – | N#CS [SCN^−]
3.1 ± 0.3 | 14.6 ± 3.6 | O=S(=O)(O)c1cc(N=C=S)ccc1/C=C/c1ccc(N=C=S)cc1S(=O)(=O)O [DIDS]

From publication PMC2217464 (The Journal of General Physiology, 2004)
